Data as given in US7538096B2, “Treatment and prevention of abnormal cellular proliferation” (The General Hospital Corporation, priority 2004, dated 2009).
Where two headings read alike, the source gives them in different places.

Experiments:
fibroblast [1] = experiment: fibroblast proliferation; format: cell-based; settings: unpublished data
[2] = test system: bovine pulmonary artery smooth muscle cells; settings: in vitro, in comparison to non-acylated heparin fragments
[3] = test system: pulmonary artery smooth muscle cell; settings: in vivo, FIG. 4
[4] = test system: pulmonary hypertension induced by hypoxia; settings: pig lung, FIG. 5
Rb = experiment: expression of Rb gene product in A549 cell tumor tissue (FIG. 21); format: in vivo; settings: A549 cell tumor tissue grown in SCID mice, dose dependent, lesser effect than on p27/KIP1, FIG. 21
tumor grown in SCID mice = experiment: apoptosis index in tumor grown in SCID mice (FIG. 19); format: in vivo
[5] = test system: HCT116 (colon cancer) cell tumor; experiment: HCT116 cell tumor growth in SCID mice (FIGS. 11-12); format: in vivo; settings: dose dependent
p27/KIP1 = settings: A549 cell tumor tissue grown in SCID mice, dose dependent, FIG. 20
E2F1 = experiment: expression of E2F1 protein in A549 cell tumor tissue (FIG. 22); format: in vivo; settings: A549 cell tumor tissue grown in SCID mice, dose dependent
[6] = test system: DMS79 (small cell lung carcinoma) cell tumor; experiment: DMS79 cell tumor growth in SCID mice (FIGS. 9-10); format: in vivo; settings: dose dependent
coagulation [7] = experiment: anticoagulant property (no test named)
[8] = test system: A549 (non-small cell lung carcinoma) cell tumor; experiment: A549 cell tumor growth in SCID mice (FIGS. 6-8); format: in vivo; settings: dose dependent
[9] = histology of tumor tissue and organs from SCID mice bearing A549 cell tumor (FIGS. 14-18); format: in vivo
coagulation [10] = experiment: coagulation time (FIG. 13); settings: for coagulation time: FIG. 13
[11] = test system: pulmonary fibrosis in response to bleomycin; experiment: pulmonary fibrosis in the rat in response to bleomycin; format: in vivo
fibroblast [12] = settings: Dahlberg et al. Am Rev. Respir. Dis. 143:A357, 1993; cited from earlier work

Question: For “O-Hexanoyl derivative of periodate-oxidized heparin fragments [hexanoylated heparin]”, which fibroblast proliferation (fibroblast [1]) is on record?
Answer: The fibroblast proliferation was “can also inhibit”.

Question: And the antiproliferative effect [2]?
Answer: Its antiproliferative effect is “significantly enhanced”.

Question: What about the “pulmonary artery smooth muscle cell proliferation” value [3] of the same substance?
Answer: The value was “significantly inhibited”.

Question: What about the “development of pulmonary hypertension” value [4] of the same substance?
Answer: The value was “significantly inhibited”.

Question: For “O-butanoylated LMW Heparin [butanoylated heparin]”, which “expression of Rb gene product” value (Rb) is on record?
Answer: Its value is “decreased”.

Question: What about the apoptosis index (tumor grown in SCID mice) of the same substance?
Answer: Its apoptosis index is “induction of apoptosis”.

Question: And the tumor growth ([5]; FIG. 11)?
Answer: The tumor growth was “significantly inhibited”.

Question: What about the tumor growth ([5]; FIG. 12) of the same substance?
Answer: The tumor growth was “significantly inhibited”.

Question: And the fibroblast proliferation (fibroblast [1])?
Answer: The fibroblast proliferation was “can also inhibit”.

Question: And the “expression of p27/KIP1 gene product” value (p27/KIP1)?
Answer: Its value is “significantly inhibited”.

Question: What about the “expression of E2F1 protein” value (E2F1) of the same substance?
Answer: The value was “significantly inhibited”.

Question: What about the tumor growth ([6]; FIG. 9) of the same substance?
Answer: The tumor growth was “significantly inhibited”.

Question: And the tumor weight ([6]; FIG. 10)?
Answer: The tumor weight was “significantly decreased”.

Question: And the anticoagulant property (coagulation [7])?
Answer: Its anticoagulant property is “virtually no”.

Question: And the tumor growth ([8]; FIG. 6)?
Answer: The tumor growth was “significantly inhibited”.

Question: And the tumor weight ([8]; FIG. 7)?
Answer: The tumor weight was “significantly decreased”.

Question: And the “percent inhibition of tumor growth” value ([8]; FIG. 8)?
Answer: The value was “significantly inhibited”.

Question: What about the “toxic effect on heart, liver, kidney, and lung” value ([9]; animals tested, FIG. 15-18) of the same substance?
Answer: The value was “no toxic effect”.

Question: And the coagulation time (coagulation [10])?
Answer: The coagulation time was “no significant effect”.

Question: And the anticoagulant effects (coagulation [10]; compared to non-acylated controls, FIGS. 13 and 14)?
Answer: The anticoagulant effects was “very low”.

Question: What does the source list for “heparin [Native heparin, reference compound]”?
Answer: pulmonary fibrosis [11]: can inhibit; apoptosis index (tumor grown in SCID mice): significantly induces apoptosis; hemorrhage in A549 cell tumor tissue (histology) ([9]; 100 mg/kg, SCID mice, FIG. 14): Hemorrhage was detected; coagulation time (coagulation [10]): increased; fibroblast proliferation (fibroblast [12]): can inhibit
